Laboratory results: PMC5085761 (International Journal of Molecular Sciences, 2016)

How the values were obtained:
human BCRP = target: T1, human BCRP (Homo sapiens, UniProt Q9UNQ0); assay: Inhibition of tracer uptake in BCRP-expressing vesicles; type: in vitro ADME; conditions: ES 0.1 µM, 100 µM–12.5 mM fluciclovine
T1 construct: purchased GenoMembrane Co., Ltd. (Kanagawa, Japan); host or cells: Sf9
T1 sequence (Q9UNQ0 1-655): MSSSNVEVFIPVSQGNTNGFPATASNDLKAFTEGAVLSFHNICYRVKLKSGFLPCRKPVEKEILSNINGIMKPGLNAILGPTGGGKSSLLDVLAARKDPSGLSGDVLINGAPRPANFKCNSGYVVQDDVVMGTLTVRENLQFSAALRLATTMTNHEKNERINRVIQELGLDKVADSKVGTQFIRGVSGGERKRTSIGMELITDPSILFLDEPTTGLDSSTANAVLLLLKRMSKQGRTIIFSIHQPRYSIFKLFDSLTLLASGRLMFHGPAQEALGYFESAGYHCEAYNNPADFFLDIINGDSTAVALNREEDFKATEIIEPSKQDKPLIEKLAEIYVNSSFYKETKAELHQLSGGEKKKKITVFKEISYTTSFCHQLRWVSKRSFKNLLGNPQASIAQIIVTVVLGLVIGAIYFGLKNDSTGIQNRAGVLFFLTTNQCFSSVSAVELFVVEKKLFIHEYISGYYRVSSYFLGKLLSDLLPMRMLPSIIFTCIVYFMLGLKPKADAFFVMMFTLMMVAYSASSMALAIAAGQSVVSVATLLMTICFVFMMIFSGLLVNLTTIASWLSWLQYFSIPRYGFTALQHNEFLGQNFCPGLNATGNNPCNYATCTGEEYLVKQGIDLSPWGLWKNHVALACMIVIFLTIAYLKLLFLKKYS
Protocol: For ABC transporters, experimental kits containing Sf9-derived vesicles with high expression levels of human P-gp, MRP4, BCRP, and each ABC transporter (including buffer, ATP/AMP solution, and glutathione) were purchased from GenoMembrane Co., Ltd. (Kanagawa, Japan).
Vesicular transport assays were carried out according to the manufacturer’s protocol. […] The reaction was started by suspending 50 μg of vesicles (10 μL) in 40 μL of the reaction buffer. After incubation for an appropriate period of time, the reaction was stopped by the addition of ice-cold stop buffer (40 mM MOPS-Tris and 70 mM KCl; pH 7.0), after which the solution was filtered through a 0.45 μm HA filter (Millipore Corp., Billerica, MA, USA) using suction, and was washed twice in 5 mL of ice-cold stop buffer. The radioactivity of the filter was measured with a Tri-Carb 2910TR liquid scintillation counter (PerkinElmer) using Ultima Gold (PerkinElmer). The amount of tracer uptake was normalized to the membrane protein amount described in the product information sheets.

OATP1B1 = target: T2, OATP1B1 (Homo sapiens, UniProt Q9Y6L6); assay: Inhibition of tracer uptake in OATP1B1-expressing cells; type: in vitro ADME; conditions: OATP1B1, tracer [3H]E2G 0.1 µM
T2 construct: host or cells: HEK293
T2 sequence (Q9Y6L6 1-691): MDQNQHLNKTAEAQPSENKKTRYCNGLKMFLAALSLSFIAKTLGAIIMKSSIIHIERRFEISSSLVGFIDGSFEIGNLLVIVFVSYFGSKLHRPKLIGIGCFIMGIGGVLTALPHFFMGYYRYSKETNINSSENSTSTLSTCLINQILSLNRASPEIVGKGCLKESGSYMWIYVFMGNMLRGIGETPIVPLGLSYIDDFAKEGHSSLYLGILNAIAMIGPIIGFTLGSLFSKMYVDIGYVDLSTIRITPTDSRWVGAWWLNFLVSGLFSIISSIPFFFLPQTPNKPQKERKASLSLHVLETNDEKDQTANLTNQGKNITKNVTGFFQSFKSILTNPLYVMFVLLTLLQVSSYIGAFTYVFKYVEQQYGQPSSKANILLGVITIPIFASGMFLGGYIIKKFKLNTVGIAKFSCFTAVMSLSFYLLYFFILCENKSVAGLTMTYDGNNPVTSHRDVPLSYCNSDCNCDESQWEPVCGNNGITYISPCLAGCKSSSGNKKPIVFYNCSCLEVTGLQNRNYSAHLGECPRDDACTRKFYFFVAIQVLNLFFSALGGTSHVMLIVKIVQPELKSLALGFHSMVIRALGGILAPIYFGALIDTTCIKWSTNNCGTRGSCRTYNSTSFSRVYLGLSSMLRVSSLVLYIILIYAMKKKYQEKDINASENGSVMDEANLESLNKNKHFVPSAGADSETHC
Protocol: For the SLC transporter experiments, Mock Flp-in-293 cells (Flp/mock), OAT1-expressing Flp-in-293 cells (Flp/OAT1), mock HEK293 cells (HEK/mock), and OATP1B3-expressing HEK293 cells (HEK/OATP1B3) were obtained from Kanazawa University (Ishikawa, Japan). Briefly, Flp-in-293 and HEK293 cells were transfected with the appropriate plasmid DNA and selected using antibiotics (hygromycin or G-418). All cell lines were cultured in DMEM (Life Technologies Japan) supplemented with 10% (v/v) fetal bovine serum (American Type Culture Collection) and antibiotics (100 U/mL penicillin and 100 μg/mL streptomycin (Life Technologies Japan) for mock cells, 0.2 mg/mL hygromycin for Flp/OAT1 cells, and 1.2 mg/mL G-418 (Roche Diagnostics K.K., Tokyo, Japan) for HEK/OATP1B3 cells) at 37 °C under an atmosphere containing 5% CO2. […]
The experiments were performed as described previously, with minor modifications. […] The cells were lysed in 0.3 mL of 0.1N NaOH at room temperature, after which the radioactivity of each aliquot was measured as described above. The protein concentration of the cell lysate was determined with a VersaMax microplate reader (Molecular Devices Japan K.K., Osaka, Japan) or SpectraMax i3x (Molecular Devices Japan K.K.; only for OATP1B1) using a BCA Protein Assay Kit (Thermo Fisher Scientific, Kanagawa, Japan). Tracer uptake was expressed as pmol/mg protein. […]

N[C@]1(C(=O)O)C[C@@H](F)C1 [fluciclovine]
inhibition of transport of BCRP-specific substrate [3H]estrone-3-sulfate (human BCRP): does not inhibit
IC50 (OATP1B1): 5.41 ± 2.49 mM
